In ChEMBL document CHEMBL3046569 (Med Chem Res, 2011):

Key:
[1] = Therapeutic index, ratio of IC50 for human H9 cells to EC50 for HIV1; assay type: cell-based; conditions: h9
[2] = tested on: Human immunodeficiency virus 1; assay: Antiviral activity against Human immunodeficiency virus 1 infected human H9 cells assessed as inhibition of viral replication; assay type: functional, organism-based; conditions: Human immunodeficiency virus 1, H9; read-out: pEC50 (converted)

| SMILES | pTI [1] | EC50 [2] [nM] |
| --- | --- | --- |
| C=C(C)[C@@H]1CC[C@]2(COC(=O)CC3(CC(=O)O)CCCC3)CC[C@]3(C)[C@H](CC[C@@H]4[C@@]5(C)CC[C@H](OC(=O)CC6(CC(=O)O)CCCC6)C(C)(C)[C@@H]5CC[C@]43C)[C@@H]12 | -2.427 | 76.9 |
| C=C(C)[C@@H]1CC[C@]2(CN)CC[C@]3(C)[C@H](CC[C@@H]4[C@@]5(C)CC[C@H](N)C(C)(C)[C@@H]5CC[C@]43C)[C@@H]12 | -0.708 | 1070 |
| C=C(C)[C@@H]1CC[C@]2(CNC(=O)CC(C)(C)CC(=O)O)CC[C@]3(C)[C@H](CC[C@@H]4[C@@]5(C)CC[C@H](NC(=O)CC(C)(C)CC(=O)O)C(C)(C)[C@@H]5CC[C@]43C)[C@@H]12 | -1.564 | 570 |
| CC(C)[C@@H]1CC[C@]2(C(=O)OC(=O)N3CCOCC3)CC[C@]3(C)[C@H](CC[C@@H]4[C@@]5(C)CC[C@H](O)C(C)(C)[C@@H]5CC[C@]43C)[C@@H]12 | -0.114 | 26000 |
| C=C(C)[C@@H]1CC[C@]2(COC(=O)CC(C)(C)CC(=O)O)CC[C@]3(C)[C@H](CC[C@@H]4[C@@]5(C)CC[C@H](OC(=O)CC(C)(C)CC(=O)O)C(C)(C)[C@@H]5CC[C@]43C)[C@@H]12 | -4.333 | 0.659 |
| C=C(C)[C@@H]1CC[C@]2(COC(=O)CC(C)(C)CC(=O)O)CC[C@]3(C)[C@H](CC[C@@H]4[C@@]5(C)CCC(=O)C(C)(C)[C@@H]5CC[C@]43C)[C@@H]12 | -0.462 | 10000 |
| C=C(C)[C@@H]1CC[C@]2(COC(=O)CCCC(=O)O)CC[C@]3(C)[C@H](CC[C@@H]4[C@@]5(C)CC[C@H](OC(=O)CCCC(=O)O)C(C)(C)[C@@H]5CC[C@]43C)[C@@H]12 | -0.833 | 3800 |
| C=C(C)[C@@H]1CC[C@]2(COC(=O)CC(C)CC(=O)O)CC[C@]3(C)[C@H](CC[C@@H]4[C@@]5(C)CC[C@H](OC(=O)CC(C)CC(=O)O)C(C)(C)[C@@H]5CC[C@]43C)[C@@H]12 (stereo not given in full) | -3.725 | 3.9 |
| C=C(C)[C@@H]1CC[C@]2(COC(C)=O)CC[C@]3(C)[C@H](CC[C@@H]4[C@@]5(C)CC[C@H](OC(C)=O)C(C)(C)[C@@H]5CC[C@]43C)[C@@H]12 [BETULIN DIACETATE] | 0 | 190000 |
| CC(C)[C@@H]1CC[C@]2(COC(=O)CC(C)(C)CC(=O)O)CC[C@]3(C)[C@H](CC[C@@H]4[C@@]5(C)CC[C@H](OC(=O)CC(C)(C)CC(=O)O)C(C)(C)[C@@H]5CC[C@]43C)[C@@H]12 | -3.353 | 4.7 |
